From PMC9788418, “Design, Synthesis and Biological Evaluation of Syn and Anti-like Double Warhead Quinolinones Bearing Dihydroxy Naphthalene Moiety as Epidermal Growth Factor Receptor Inhibitors with Potential Apoptotic Antiproliferative Action” (Molecules, 2022) come the findings set out here.

The test system of one assay is caspase-8. Description: Caspase-8 activation assay. It counts as cell-based, human.
The next assay relates to caspase-9. In words: Caspase-9 level assay. It counts as cell-based, human. The protocol: The impact of compounds 4a and 4b on caspase-8 and caspase-9 was also assessed to clarify how compounds 4a and 4b induce apoptosis by activating the intrinsic or extrinsic route.
Another assay has as its system Cytochrome C. In words: Cytochrome C assay. It counts as cell-based, human. The procedure: The concentration of Cytochrome c in a cell is crucial for activating caspases and starting the intrinsic apoptosis process. […]
(§1) plate cover and incubate at room temperature, on a microplate shaker at 100 rpm if available, for 1 hour. Remove plate cover and empty the wells. Wash microwell strips 3 times as described in step 2.
(§2) Proceed to the next step. Pipette 100 μl of mixed TMB Substrate Solution to all wells, including the […]
(§3) available on a rotator set at 100 rpm. Avoid direct exposure to intense light. The point, at which the substrate reaction is stopped, is often determined by the ELISA reader. Many ELISA readers record absorbance only up to 2.0 O.D. Therefore, the color development within individual microwells must be watched by the person running the assay and the substrate reaction stopped before positive wells are no longer properly detectable. Stop the enzyme reaction by quickly pipetting 100 μL of Stop Solution into each well, including the blank wells. It is important that the Stop Solution is spread quickly and uniformly throughout the microwells to completely inactivate the enzyme. Results must be read immediately after the Stop Solution is added or within one hour if the microwell strips are stored at 2 - 8°C in the dark. Read absorbance of each microwell on a spectrophotometer using 450 nm as the primary wave length.
4.2.6. Cytochrome C assay […]
cytochrome C, and lysed with Cell Extraction Buffer. This lysate was diluted in Standard Diluent Buffer over the range of the assay and measured for cytochrome C content. (Cells are Plated in cells/well in a volume of 100µl complete growth medium + 100 µl of the tested compound + 50 µl of 1X biotin conjugated antibody+ 100 µl of 1X streptavidin-HRP+ 100 µL TMB substrate soln of per well in a 96-well plate for 24 hours before assay).
4.3. Statistical analysis
Computerized Prism 5 program was used to statistically analyzed data using one-way ANOVA test followed by Tukey’s as post ANOVA for multiple comparison at P ≤.05. Data were presented as […]

The test system of another assay is Bax. In words: Bax activation assay. It counts as cell-based, human. As to conditions: for Bax Conc: A-549. The procedure: 8, and lysed with Cell Extraction Buffer. This lysate was diluted in Standard Diluent Buffer over the range of the assay and measured for human active caspase-8 content. (cells are Plated in a density of 1.2 – 1.8 × 10,000 cells/well in a volume of 100µl complete growth medium + 100 ul of the tested compound per well in a 96-well plate for 24 hours before the enzyme assay for […].). […]
4.2.4. Bax activation assay
Bring all reagents, except the human Bax-α Standard, to room temperature for at least 30 minutes prior to opening. The human Bax-α Standard solution should not be left at room temperature for more than 10 minutes. All standards, controls and samples should be run in duplicate. Refer to the Assay Layout Sheet to determine the number of wells to be used and put any remaining wells with the desiccant back into the pouch and seal the ziploc. Store unused wells at 4 °C. Pipet 100 μL of Assay Buffer into the S0 (0 pg/mL standard) wells. Pipet 100 μL of Standards #1 through #6 into the appropriate wells. Pipet 100 μL of the Samples into the appropriate wells. Tap the plate gently to mix the contents. Seal the plate and incubate at room temperature on a plate shaker for 1 hour at ~500 rpm. Empty the contents of the wells and wash by adding 400 μL of wash solution to every well.
Repeat the wash 4 more times for a total of 5 washes. After the final wash, empty or aspirate the wells and firmly tap the plate on a lint free paper towel to remove any remaining wash buffer. Pipet 100 μL of yellow Antibody into each well, except the Blank. Seal the plate and incubate at room temperature on a plate shaker for 1 hour at ~500 […]
wells and firmly tap the plate on a lint free paper towel to remove any remaining wash buffer. Add […]
100 μL of blue Conjugate to each well, except the Blank. Seal the plate and incubate at room temperature on a plate shaker for 30 minutes at ~500 rpm. Empty the contents of the wells and wash by adding 400 μL of wash solution to every well. Repeat the wash 4 more times for a total of 5 washes. After the final wash, empty or aspirate the wells and firmly tap the plate on a lint free paper towel to remove any remaining wash buffer. Pipet 100 μL of Substrate Solution into each well.
Incubate for 30 minutes at room temperature on a plate shaker at ~500 rpm. Pipet 100 μL Stop Solution to each well. Blank the plate reader against the Blank wells, read the optical density at 450 nm. Calculate the average net Optical Density (OD) bound for each standard and sample by subtracting the average Blank OD from the average OD for each standard and sample. Using linear graph paper, plot the Average Net OD for each standard versus Bax concentration in each standard.
Approximate a straight line through the points. The concentration of Bax in the unknowns can be determined by interpolation. […]

Another assay relates to Bcl-2. Description: Bcl-2 inhibition assay. It is filed as cell-based, human. The procedure:
4.2.5. Bcl-2inhibition assay
Mix all reagents thoroughly without foaming before use. Wash the microwells twice with approximately 300 μL Wash Buffer per well with thorough aspiration of microwell contents between washes. Take caution not to scratch the surface of the microwells. After the last wash, empty the wells and tap microwell strips on absorbent pad or paper towel to remove excess Wash Buffer. Use the microwell strips immediately after washing or place upside down on a wet absorbent paper for not […]
longer than 15 minutes. […] Add 100 μL of Sample Diluent in duplicate to all standard wells and to the blank wells. Prepare standard (1:2 dilution) in duplicate ranging from 32 ng/mL to 0.5 ng/mL. Add 100 μL of Sample Diluent, in duplicate, to the blank wells. Add 80 μL of Sample Diluent, in duplicate, to the sample wells. Add 20 μL of each Sample, in duplicate, to the designated wells. Add 50 μL of diluted biotin-conjugate to all wells, including the blank wells. Cover […]
Remove plate cover and empty the wells. […]
as §1, §2
as §3, with “length. […]” for “length.”

The next assay relates to caspase-3. Description: Caspase-3 activation assay.
Setting [1] is: A-549, vs control untreated cells.

Description for caspase-3: record autophosphorylation level, EGFR kinase assay was carried out based on DELFIA/Time-
Resolved Fluorometry. The compounds were first dissolved in DMSO absolute, after dilution to
Each compound (10 µL) was incubated
with recombinant enzyme (10 µL, 5 ng for EGFR, 1:80 dilution in 100 mM HEPES) for 10 min at
25 °C, after the addition of 5X buffer (10 µL, containing 2 mM MnCl2, 100 µM Na3VO4, 20 mM HEPES and 1 mM DTT) and ATP-MgCl2 (20 µL, containing 0.1 mM ATP and 50 mM MgCl2) and
incubation for 1h. The negative and positive controls were included in each plate by the incubation
of enzyme either with or without ATP-MgCl2. The liquid was removed after incubation and the plates
were washed thrice using wash buffer. Europium-tagged antiphosphotyrosine antibody (75 µL, 400
ng) was added to each well followed by incubation of 1h and then washing of the plates using buffer.
The enhancement solution was added to each well and the signal was recorded at excitation and
The autophosphorylation percentage inhibition by compounds was calculated using the following equation:

As for `COc1cccc2c1C(=O)c1c(O)c3c(c(O)c1C2=O)C[C@@](O)(C(=O)CO)C[C@@H]3O[C@H]1C[C@H](N)[C@H](O)[C@H](C)O1` [Doxorubicin, reference compound], the “Caspase-8 Conc” value in the assay on caspase-8 was 1.80 ng/mL. The “Caspase-8 Fold Change” value in the assay with caspase-8 (vs control cells) worked out at 9. In addition, the “Caspase-9 Conc” value in the assay with caspase-9 amounted to 16.25 ng/mL. Also, the “Caspase-9 Fold Change” value in the assay on caspase-9 (vs control cells) is recorded as 17.00. For the same compound, the “Cytochrome C Conc” value in the assay on Cytochrome C (A-549) is 0.60 ng/mL. The “Cytochrome C Fold Change” value in the assay on Cytochrome C (A-549, vs control) was 12. For the same compound, the “Bax Conc” value in the assay with Bax was determined as 276.20 pg/mL; in the assay with Bax (listed as doxorubicin), 276 pg/mL. Besides, in the assay with Bax (setting [1]), the “Bax Fold Change” value amounted to 33. Further, the “Bcl-2 Conc” value in the assay on Bcl-2 (A-549) was found to be 1.98 ng/mL. Moreover, the “Bcl-2 Fold Reduction” value in the assay on Bcl-2 (A-549, vs control) is on record as 2.5. In addition, in the assay on caspase-3 (A-549), the “Caspase-3 Conc” value was determined as 503.25 ± 4.50 pg/mL. The “Caspase-3 Fold Change” value in the assay with caspase-3 (setting [1]) was found to be 7.70.
